Values quoted from earlier work, collected in US20170020838A1, “TREATMENT FOR RESPIRATORY DISEASE” (MUCOKINETICA LIMITED, priority 2014, published 2017).

System: airway ENaC
Settings: Bridges et al. 2001; cited from earlier work

**Q.** With aprotinin as the substance, how does the “effect on airway ENaC activity” value read?
**A.** Down regulation
